Patent publication US20200179286A1, “CARRIER STRUCTURE AND DRUG CARRIER, AND PREPARING METHODS THEREOF” (GENE'E TECH CO., LTD., priority 2018, published 2020)
In brackets after ≈: the same amount, converted by molar mass.

Test system: H. pylori
Test: in vitro inhibition of H. pylori suspension (OD450 after 48 hours)
Format: cell-based
Conditions: Helicobacter pylori, read-out: minimum inhibitory concentration
Experimental: FIGS. 7 and 8 show the results of the in vitro application of the drug carrier according to some embodiments of this invention. In the in vitro experiment, a suspension of H. pylori was obtained and respectively added with amoxicillin (with a minimum inhibitory concentration of about 0.5 μg/ml and the concentration was fixed at 0.5 μg/ml), samples 1, 5, A and E above. Next, the suspensions of H. pylori, after the addition of amoxicillin and the above samples, were further cultured for 48 hours, the OD450 of the suspension each was measured to determine the effect of inhibiting H. pylori. […] Through this test, it can be clearly seen that both the carrier structure and the drug carrier of the disclosure have the ability to inhibit H. pylori, especially the drug carrier with appropriate active substances has an obvious effect.

MIC: ~0.5 µg/mL (≈ 1.37 µM)
SMILES: CC1(C)S[C@@H]2[C@H](NC(=O)[C@H](N)c3ccc(O)cc3)C(=O)N2[C@H]1C(=O)O [amoxicillin]
